“Also recorded” adds a separate entry of the source.
What was measured:
GR binding sites = assay: GR ChIP-seq in LAPC4 cells after addition of dexamethasone; assay type: cell-based, human
From the text: The inventors recently discovered that within PC cells, activated GR can compensate transcriptionally for a large set of genes. […] In a companion experiment using chromatin immunoprecipitation followed by deep sequeicing (ChIP-seq) in LAPC4 cells, the addition of dexamethasone to activate the GR leads to ˜700 new unique GR binding sites, approximately 70 of these new sites are within 5 kilobase (kb) of the transctiption start site of known genes. This argues that the majority of GR chromatin binding and subsequent gene regulation is through regulation at more distant enhancer sites rather then through direct promoter site binding. As bromodomain proteins such as BRD4 cooperate with known transcription factors, including the GR, at such enhancers to enable gene regulation, the inventors sought to establish whether BRD4 and GR cooperate to regulate pro-survival genes in Enza-R CRPC.

LNCaP-EnzaR cells = assay: Cell viability of LNCaP-EnzaR cells treated with R1881, enzalutamide, Dex with or without JQ1; assay type: cell-based, human; details: 3 days
Experimental: FIG. 3. […] LNCaP-EnzR cells were treated for three days of R1881 and enzalutamide (RE), concurrently with vehicle, Dex (D) or D+JQ1. Error bars=standard error of mean. The bars, from left to right, correspond to RE, RED, and RED-JQ 1.
BET-inhibition decreases Enza-R survival in vitro despite dexamethasone. It has been reported that the BET inhibitor JQ1 (100-500 nM) can decrease Enza-R cell survival, potentially through inhibition of ligand independent AR splice variants.

[1] = tested on: GR (NR3C1) target gene expression; assay: Dex-mediated GR target gene expression (KLK3, SGK1, FKBP5) with BET inhibition in LNCaP-EnzR cells; assay type: cell-based, human; details: three days R1881 and enzalutamide, then Dex or Dex+JQ1, relative to RE, p<0.05
Experimental: FIG. 2. Dex-mediated GR (NR3C1) target gene expression decreased with BETinhibition. LNCaP-EnzR cells were treated for three days of R1881 and enzalutamide (RE), after which cells stimulated with Dex (D) or Dex+JQ1. All conditions relative to RE. Changes all significant p<0.05 with no change in GR expression across conditions. Each series of bars from left to right corresponds to data from RE, RED, and RED-JQl.
The inventors have also verified that the principal BET-BRD proteins inhibited by a BET inhibitor (ABT-075), BRD4 and BRD3 are expressed within the Enza-R CRPC cell lines. […] It was next sought to explore whether for specific, known GR-regulated in PC cells genes (KLK3, SGK1, FKBPS) the BET inhibitor tool compound JQ1 was able to decrease GR mediated gene expression.

Enza-R cells = details: JQ1 100-500 nM; reported; cited from earlier work

| Compound | new unique GR binding sites (GR binding sites) | viable cell numbers (LNCaP-EnzaR cells; dexamethasone 100 nM with R1881 1 nM and enzalutamide 10 μM) | GR mediated gene expression (KLK3, SGK1, FKBPS) [1] | Enza-R cell survival (Enza-R cells) | viable cell numbers (Dex-mediated cell viability) (LNCaP-EnzaR cells; JQ1 500 nM with dexamethasone 100 nM, R1881 1 nM, enzalutamide 10 μM) |
| --- | --- | --- | --- | --- | --- |
| C[C@@H]1C[C@H]2[C@@H]3CCC4=CC(=O)C=C[C@]4(C)[C@@]3(F)[C@@H](O)C[C@]2(C)[C@@]1(O)C(=O)CO [Dex, dexamethasone] | ~700 | increases |  |  |  |
| Cc1sc2c(c1C)C(c1ccc(Cl)cc1)=N[C@@H](CC(=O)OC(C)(C)C)c1nnc(C)n1-2 [JQ1] |  |  | significantly countered; also recorded: decreased | can decrease | significantly decreased |
